In paper PMC7377239, “Cardiovascular Effects of Polychlorinated Biphenyls and Their Major Metabolites” (Environmental Health Perspectives, 2020):
Read-outs that look alike come from different tables or passages of the source.

Test system: HUVECs
Experiment: Tube formation (tubulogenesis) assay in HUVECs, 18 h
Assay type: cell-based, human
Settings: Homo sapiens, HUVEC, 18 h
How it was run: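 HUVECs (passage 1–5) seeded on reduced-growth-factor basement membrane and exposed to compounds overnight at 37°C, 5% CO2, in 2× maintenance medium with 12.5 ng/mL VEGF; 0.5% DMSO vehicle. Calcein AM-stained tube networks imaged and analysed; vehicle-normalized readouts fit to four-parameter logistic, POD set at one SD of vehicle means.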

[1] = HUVECs, 0.01 µM, 0.00 µM = 100.00, read-out: huvec.mtl.18hr
[2] = HUVECs, 0.01 µM, 0.00 µM = 100.00, read-out: huvec.tlps.18hr
[3] = HUVECs, 0.01 µM, 0.00 µM = 100.00, read-out: huvec.tta.18hr
[4] = HUVECs, 0.01 µM, 0.00 µM = 100.00, read-out: huvec.ttl.18hr
[5] = HUVECs, 0.10 µM, 0.00 µM = 100.00, read-out: huvec.mtl.18hr
[6] = HUVECs, 0.10 µM, 0.00 µM = 100.00, read-out: huvec.tlps.18hr
[7] = HUVECs, 0.10 µM, 0.00 µM = 100.00, read-out: huvec.tta.18hr
[8] = HUVECs, 0.10 µM, 0.00 µM = 100.00, read-out: huvec.ttl.18hr
[9] = HUVECs, 1.00 µM, 0.00 µM = 100.00, read-out: huvec.mtl.18hr
[10] = HUVECs, 1.00 µM, 0.00 µM = 100.00, read-out: huvec.tlps.18hr
[11] = HUVECs, 1.00 µM, 0.00 µM = 100.00, read-out: huvec.tta.18hr
[12] = HUVECs, 1.00 µM, 0.00 µM = 100.00, read-out: huvec.ttl.18hr
[13] = HUVECs, 10.00 µM, 0.00 µM = 100.00, read-out: huvec.mtl.18hr
[14] = HUVECs, 10.00 µM, 0.00 µM = 100.00, read-out: huvec.tlps.18hr
[15] = HUVECs, 10.00 µM, 0.00 µM = 100.00, read-out: huvec.tta.18hr
[16] = HUVECs, 10.00 µM, 0.00 µM = 100.00, read-out: huvec.ttl.18hr
[17] = HUVECs, 100.00 µM, 0.00 µM = 100.00, read-out: huvec.mtl.18hr
[18] = HUVECs, 100.00 µM, 0.00 µM = 100.00, read-out: huvec.tlps.18hr
[19] = HUVECs, 100.00 µM, 0.00 µM = 100.00, read-out: huvec.tta.18hr
[20] = HUVECs, 100.00 µM, 0.00 µM = 100.00, read-out: huvec.ttl.18hr
[21] = HUVECs, top concentration 100.00 µM, read-out: huvec.mtl.18hr POD
[22] = HUVECs, top concentration 100.00 µM, read-out: huvec.tlps.18hr POD
[23] = HUVECs, top concentration 100.00 µM, read-out: huvec.tta.18hr POD
[24] = HUVECs, top concentration 100.00 µM, read-out: huvec.ttl.18hr POD
[25] = HUVECs tube formation, MAX 100.00, read-out: huvec.mtl.18hr POD
[26] = HUVECs tube formation, MAX 100.00, read-out: huvec.tlps.18hr POD
[27] = HUVECs tube formation, MAX 100.00, read-out: huvec.tta.18hr POD
[28] = HUVECs tube formation, MAX 100.00, read-out: huvec.ttl.18hr POD
[29] = HUVECs tube formation, concentration 0.01 µM, 0.00 µM = 100.00, read-out: huvec.mtl.18hr
[30] = HUVECs tube formation, concentration 0.01 µM, 0.00 µM = 100.00, read-out: huvec.tlps.18hr
[31] = HUVECs tube formation, concentration 0.01 µM, 0.00 µM = 100.00, read-out: huvec.tta.18hr
[32] = HUVECs tube formation, concentration 0.01 µM, 0.00 µM = 100.00, read-out: huvec.ttl.18hr
[33] = HUVECs tube formation, concentration 0.10 µM, 0.00 µM = 100.00, read-out: huvec.mtl.18hr
[34] = HUVECs tube formation, concentration 0.10 µM, 0.00 µM = 100.00, read-out: huvec.tlps.18hr
[35] = HUVECs tube formation, concentration 0.10 µM, 0.00 µM = 100.00, read-out: huvec.tta.18hr
[36] = HUVECs tube formation, concentration 0.10 µM, 0.00 µM = 100.00, read-out: huvec.ttl.18hr
[37] = HUVECs tube formation, concentration 1.00 µM, 0.00 µM = 100.00, read-out: huvec.mtl.18hr
[38] = HUVECs tube formation, concentration 1.00 µM, 0.00 µM = 100.00, read-out: huvec.tlps.18hr
[39] = HUVECs tube formation, concentration 1.00 µM, 0.00 µM = 100.00, read-out: huvec.tta.18hr
[40] = HUVECs tube formation, concentration 1.00 µM, 0.00 µM = 100.00, read-out: huvec.ttl.18hr
[41] = HUVECs tube formation, concentration 10.00 µM, 0.00 µM = 100.00, read-out: huvec.mtl.18hr
[42] = HUVECs tube formation, concentration 10.00 µM, 0.00 µM = 100.00, read-out: huvec.tlps.18hr
[43] = HUVECs tube formation, concentration 10.00 µM, 0.00 µM = 100.00, read-out: huvec.tta.18hr
[44] = HUVECs tube formation, concentration 10.00 µM, 0.00 µM = 100.00, read-out: huvec.ttl.18hr
[45] = HUVECs tube formation, concentration 100.00 µM, 0.00 µM = 100.00, read-out: huvec.mtl.18hr
[46] = HUVECs tube formation, concentration 100.00 µM, 0.00 µM = 100.00, read-out: huvec.tlps.18hr
[47] = HUVECs tube formation, concentration 100.00 µM, 0.00 µM = 100.00, read-out: huvec.tta.18hr
[48] = HUVECs tube formation, concentration 100.00 µM, 0.00 µM = 100.00, read-out: huvec.ttl.18hr

## Oc1cc(Cl)cc(-c2cccc(Cl)c2)c1 [5-OH PCB 11]
[1]
  activity at 0.01 µM: 117%
[2]
  activity at 0.01 µM: 148%
[3]
  activity at 0.01 µM: 116%
[4]
  activity at 0.01 µM: 106%
[5]
  activity at 0.1 µM: 121%
[6]
  activity at 0.1 µM: 186%
[7]
  activity at 0.1 µM: 123%
[8]
  activity at 0.1 µM: 106%
[9]
  activity at 1 µM: 103%
[10]
  activity at 1 µM: 111%
[11]
  activity at 1 µM: 113%
[12]
  activity at 1 µM: 104%
[13]
  activity at 10 µM: 81.1%
[14]
  activity at 10 µM: 102%
[15]
  activity at 10 µM: 76.5%
[16]
  activity at 10 µM: 67.6%
[17]
  activity at 100 µM: 63%
[18]
  activity at 100 µM: 38.8%
[19]
  activity at 100 µM: 111%
[20]
  activity at 100 µM: 94.6%
[21]
  minimal effective concentration: 6.98 µM
[22]
  minimal effective concentration: 100 µM
[23]
  minimal effective concentration: 100 µM
[24]
  minimal effective concentration: 32.7 µM

## Clc1ccc(-c2ccccc2)cc1 [PCB3]
[1]
  activity at 0.01 µM: 96.2%
[2]
  activity at 0.01 µM: 59.5%
[3]
  activity at 0.01 µM: 68%
[4]
  activity at 0.01 µM: 71.6%
[5]
  activity at 0.1 µM: 97.7%
[6]
  activity at 0.1 µM: 91.8%
[7]
  activity at 0.1 µM: 96.2%
[8]
  activity at 0.1 µM: 104%
[9]
  activity at 1 µM: 87%
[10]
  activity at 1 µM: 74.7%
[11]
  activity at 1 µM: 76.6%
[12]
  activity at 1 µM: 81.5%
[13]
  activity at 10 µM: 96.7%
[14]
  activity at 10 µM: 74.2%
[15]
  activity at 10 µM: 62%
[16]
  activity at 10 µM: 66.4%
[17]
  activity at 100 µM: 70.8%
[18]
  activity at 100 µM: 39.1%
[19]
  activity at 100 µM: 26%
[20]
  activity at 100 µM: 28%
[21]
  minimal effective concentration: 25.3 µM
[22]
  minimal effective concentration: 100 µM
[23]
  minimal effective concentration: 0.67 µM
[24]
  minimal effective concentration: 0.7 µM

## Clc1cccc(-c2cccc(Cl)c2)c1 [PCB11]
[1]
  activity at 0.01 µM: 107%
[2]
  activity at 0.01 µM: 122%
[3]
  activity at 0.01 µM: 138%
[4]
  activity at 0.01 µM: 122%
[5]
  activity at 0.1 µM: 113%
[6]
  activity at 0.1 µM: 126%
[7]
  activity at 0.1 µM: 133%
[8]
  activity at 0.1 µM: 124%
[9]
  activity at 1 µM: 109%
[10]
  activity at 1 µM: 130%
[11]
  activity at 1 µM: 157%
[12]
  activity at 1 µM: 140%
[13]
  activity at 10 µM: 97.8%
[14]
  activity at 10 µM: 94.6%
[15]
  activity at 10 µM: 86.1%
[16]
  activity at 10 µM: 87.2%
[17]
  activity at 100 µM: 81.4%
[18]
  activity at 100 µM: 77.5%
[19]
  activity at 100 µM: 85%
[20]
  activity at 100 µM: 78.8%
[21]
  minimal effective concentration: 100 µM
[22]
  minimal effective concentration: 41.8 µM
[23]
  minimal effective concentration: 100 µM
[24]
  minimal effective concentration: 100 µM

## Clc1ccc(Cl)c(-c2cc(Cl)ccc2Cl)c1 [PCB52]
[1]
  activity at 0.01 µM: 105%
[2]
  activity at 0.01 µM: 114%
[3]
  activity at 0.01 µM: 103%
[4]
  activity at 0.01 µM: 94.1%
[5]
  activity at 0.1 µM: 111%
[6]
  activity at 0.1 µM: 126%
[7]
  activity at 0.1 µM: 105%
[8]
  activity at 0.1 µM: 94.2%
[9]
  activity at 1 µM: 108%
[10]
  activity at 1 µM: 121%
[11]
  activity at 1 µM: 86.8%
[12]
  activity at 1 µM: 81.6%
[13]
  activity at 10 µM: 100%
[14]
  activity at 10 µM: 95%
[15]
  activity at 10 µM: 99.7%
[16]
  activity at 10 µM: 94.2%
[17]
  activity at 100 µM: 97.2%
[18]
  activity at 100 µM: 114%
[19]
  activity at 100 µM: 94.8%
[20]
  activity at 100 µM: 83.5%
[21]
  minimal effective concentration: 100 µM
[22]
  minimal effective concentration: 100 µM
[23]
  minimal effective concentration: 100 µM
[24]
  minimal effective concentration: 100 µM

## Clc1ccc(Cl)c(-c2c(Cl)ccc(Cl)c2Cl)c1 [PCB95]
[25]
  minimal effective concentration: 8.29 µM
[26]
  minimal effective concentration: 100 µM
[27]
  minimal effective concentration: 100 µM
[28]
  minimal effective concentration: 100 µM
[29]
  activity at 0.01 µM: 96.9%
[30]
  activity at 0.01 µM: 80.5%
[31]
  activity at 0.01 µM: 75.1%
[32]
  activity at 0.01 µM: 63%
[33]
  activity at 0.1 µM: 82.7%
[34]
  activity at 0.1 µM: 88.7%
[35]
  activity at 0.1 µM: 71.1%
[36]
  activity at 0.1 µM: 63.9%
[37]
  activity at 1 µM: 104%
[38]
  activity at 1 µM: 86.3%
[39]
  activity at 1 µM: 78.7%
[40]
  activity at 1 µM: 68.7%
[41]
  activity at 10 µM: 87.4%
[42]
  activity at 10 µM: 88.9%
[43]
  activity at 10 µM: 84%
[44]
  activity at 10 µM: 79.8%
[45]
  activity at 100 µM: 72.8%
[46]
  activity at 100 µM: 64.1%
[47]
  activity at 100 µM: 68.8%
[48]
  activity at 100 µM: 61.4%

## Clc1ccc(-c2cc(Cl)c(Cl)c(Cl)c2)cc1Cl [PCB126]
[25]
  minimal effective concentration: 100 µM
[26]
  minimal effective concentration: 100 µM
[27]
  minimal effective concentration: 100 µM
[28]
  minimal effective concentration: 100 µM
[29]
  activity at 0.01 µM: 93.6%
[30]
  activity at 0.01 µM: 51.1%
[31]
  activity at 0.01 µM: 51.1%
[32]
  activity at 0.01 µM: 53.8%
[33]
  activity at 0.1 µM: 98.7%
[34]
  activity at 0.1 µM: 67.7%
[35]
  activity at 0.1 µM: 80.9%
[36]
  activity at 0.1 µM: 84.3%
[37]
  activity at 1 µM: 87.8%
[38]
  activity at 1 µM: 61.4%
[39]
  activity at 1 µM: 77.3%
[40]
  activity at 1 µM: 83.6%
[41]
  activity at 10 µM: 89.6%
[42]
  activity at 10 µM: 52.3%
[43]
  activity at 10 µM: 94.3%
[44]
  activity at 10 µM: 100%
[45]
  activity at 100 µM: 83.2%
[46]
  activity at 100 µM: 59.4%
[47]
  activity at 100 µM: 92.7%
[48]
  activity at 100 µM: 88.9%
